# Experimental data reported in USRE38825E1, “Glyphosate tolerant plants” (Monsanto Technology LLC, priority 1990, dated 2005).
# Read-outs that look alike come from different tables or passages of the source.
# B1: v.247: glyphosate oxidoreductase variant (SEQ ID NO:18); GLY84, ARG153, ARG334 (protein)
# chain: MAENHKKVGIAGAGIVGVCTALMLQRRGFKVTLIDPNPPGEGASFGNAGCFNGSSVVPMSMPGNLTSVPKWLLDPMGPLSIRFGYFPTIMPWLIRFLLAGRPNKVKEQAKALRNLIKSTVPLIKSLAEEADASHLIRHEGHLTVYRGEADFARDRGGWELRRLNGVRTQILSADALRDFDPNLSHAFTKGILIEENGHTINPQGLVTLLFRRFIANGGEFVSARVIGFETEGRALKGITTTNGVLAVDAAVVAAGAHSKSLANSLGDDIPLDTERGYHIVIANPEAAPRIPTTDASGKFIATPMEMGLRVAGTVEFAGLTAAPNWKRAHVLYTRARKLLPALAPASSEERYSKWMGFRPSIPDSLPVIGRATRTPDVIYAFGHGHLGMTGAPMTATLVSELLAGEKTSIDISPFAPNRFGIGKSKQTGPAS
# Legend:
# [1] = test system: glyphosate oxidoreductase; assay: Glyphosate oxidoreductase activity in isolated chloroplasts from transgenic tobacco; assay type: biochemical, Nicotiana tabacum; settings: substrate 50 mM; 30 minute assays; without ubiquinone; chloroplasts of plants #22844, 22854, 22886, 22887
# [2] = target: LBAA glyphosate oxidoreductase variant v.247 (v1v2v3: GLY84, ARG153, ARG334), SEQ ID NO:18 (Ochrobactrum sp. G-1, UniProt D2KI28, H334R/K153R/S2A/S84G); assay: Kinetic analysis of glyphosate oxidoreductase variant v.247; assay type: biochemical, bacterial isolate LBAA (Pseudomonas strain LBAA); settings: v.247
# Protocol: The mutagenesis procedure used was that of Mn++-poisoned PCR and the template was a linearized glyphosate oxidoreductase gene plasmid containing the synthetic glyphosate oxidoreductase gene (SEQ ID NO:8). The oligonucleotide primers used were homologous to regions in the vector and flanking the glyphosate oxidoreductase gene. The PCR conditions employed were as follows: 1 minute at 94° C., 2 minutes at 55° C., and 3 minutes at 72° C. and with 35 cycles. A 5:1 ratio of dCTP+dGTP+TTP to dATP was used. The reactions contained MnCl2 at 125, 250, 375, or 500 μM. After the reaction, the amplified product was recloned into a vector containing a weak E. coli promoter. This vector was a pBR327 derivative containing the araBAD promoter and suitable cloning sites. One hundred colonies from this cloning step were then screened in E. coli GB993 for improved glyphosate tolerance and utilization phenotypes in media composed of MOPS minimal medium with glyphosate and Pi or with glyphosate alone, respectively. Growth rates were determined by measuring A550 over a 96 hour period. […] The glyphosate oxidoreductase gene was recloned into the expression vector portion and this phenotype verified. All kinetic analysis was performed on crude E. coli lysates. Putative glyphosate oxidoreductase variant proteins were overexpressed after subcloning the NcoI/HindIII variant glyphosate oxidoreductase gene into PrecA-gene10L expression vector. For overexpression in PrecA-gene10L constructs, GB993 cells containing the vector were induced at a Klett=110-120 in M9 minimal medium with 50 μg/ml nalidixic acid and allowed to grow for 2.5 hours at 37° C. with vigorous shaking. Cells were harvested by centrifugation at 4000 g, 5 minutes at 4° C., and resuspend in 100 mM Tris-HCl, pH 7.1, 1 mM EDTA, 35 mM KCl, 20% glycerol, and 1 mM benzamidine at 3 ml/g cell pellet. Lysates were prepared by breaking the cells in a French press, twice, at 1000 psi. Insoluble debris was removed by centrifugation at 12000 g, 15 minutes at 4° C., and the supernatant was de-salted by passing over a PD-10 column (Sephadex G-25, Pharmacia). The void volume fraction was used as the source of enzyme for kinetic analysis. Protein concentrations were determined using the Bio-Rad protein dye-binding assay. Time and enzyme concentration courses were performed to determine linear ranges. […] Ten minutes was determined to be the optimal time for the enzyme assay using 10 μg lysate. After 10 minutes at 30° C. with shaking, 0.25 ml dinitrophenylhydrazine (DNPH) reagent (0.5 mg/ml in 0.5M HCl) was added and the reaction was allowed to proceed for an additional 5 minutes at 30° C. with shaking. A 1.5M NaOH solution (400 μl) was then added to the assay mix, and the reaction was continued for 5 minutes at 30° C. with shaking. Enzyme activity was determined from the amount of glyoxylate-DNPH adduct formed by measuring A520 against a standard of glyoxylate. Enzyme assays are performed in duplicate on at least two different single colony isolates of a putative glyphosate oxidoreductase variant. To determine Km and Vmax, enzyme assays were performed over a (0.2-2.0)×Km range of glyphosate concentrations. The Km and Vmax were determined from Lineweaver Burk, Eadie-Hofstee and hyperbolic kinetic plots. Vmax was estimated after determining the amount of immunoreactive glyphosate oxidoreductase protein in lysates by immunoblot analysis as described below. Immunoblot analysis was performed following SDS-PAGE and transfer of protein from the gel to nitrocellulose at 500 mA in a Hoeffer transfer apparatus in 25 mM Tris-HCl, 192 mM glycine containing 0.1% SDS and 25% methanol for 1-2 hours. After transfer, the nitrocellulose was incubated with 50 mM Tris-HCl, pH7.5, 0.9% NaCl, 0.01% Tween 20, 0.02% NaN3 containing 2% bovine serum albumin at room temperature with shaking for at least 30 minutes. […]
# [3] = target: LBAA glyphosate oxidoreductase variant ARG 334 (His334 to Arg) (Ochrobactrum sp. G-1, UniProt D2KI28, H334R/S2A); assay: Kinetic analysis of glyphosate oxidoreductase variant ARG 334 (site-directed mutagenesis); assay type: biochemical, bacterial isolate LBAA (Pseudomonas strain LBAA)
# most plant species [4] = settings: Franz, 1985; cited from earlier work
# most plant species [5] = settings: in vivo; cited from earlier work
# [6] = test system: glyphosate oxido-reductase from LBAA; assay: Glyphosate oxidoreductase reaction with substrates; assay type: biochemical; settings: oxidation to glycine and glyoxylate
# From the text: The enzyme glyphosate oxidoreductase catalyzes the cleavage of the C-N bond of glyphosate yielding aminomethyl phosphonate (AMPA) and glyoxylate as the reaction products. Under aerobic conditions, oxygen is utilized as a cosubstrate for the reaction. Other electron carriers such as phenazine methosulfate and ubiquinone stimulate the reaction under aerobic conditions. In the absence of oxygen, these compounds act as electron acceptors.
# The enzymatic reaction can be assayed by oxygen uptake using an oxygen electrode. […] This enzyme has a stoichiometry of two moles of glyphosate oxidized per mole of oxygen consumed and produces two moles each of AMPA and glyoxylate as reaction products.
# In addition to glyphosate, glyphosate oxido-reductase from LBAA oxidizes iminodiacetic acid (IDA) to glycine and glyoxylate.
# [7] = Kinetic analysis of glyphosate oxidoreductase variants in crude E. coli lysates (glyoxylate-DNPH assay), substrate glyphosate; assay type: biochemical; settings: 25 mM glyphosate
# From the text: Using this PCR approach, glyphosate oxidoreductase genes from a number of sources have been isolated. The presence of the glyphosate oxidoreductase activity was confirmed by cloning the glyphosate oxidoreductase gene from chromosomal DNA prepared from Pseudomonas sp. strain LBr (Jacob et al., 1988) and using primers homologous to the N- and C-termini of the LBAA glyphosate oxidoreductase gene and containing the following suitable restriction cloning sites: 5′-[…]-3′ (SEQ ID NO:13) and 5′-[…]-3′ (SEQ ID NO:14). Cyclotherm parameters used for these PCR reactions is as follows: • Denature at 94° C. for 1 minute; • Anneal at 60° C. for 2 minutes; • Polymerize at 72° C. for 3 minutes, • 30 cycles, no autoextension, linked to 4° C. incubation. […]
# A population of bacteria was isolated from a fixed-bed immobilized cell column, which employed Mannville R-635 diatomaceous earth beads, by plating on Tryptone Soy Agar (Difco), containing cylcoheximide at 100 ug/ml, and incubating at 28° C. […] The glyphosate oxidoreductase activity was assayed and the Km for glyphosate also determined:
# The mutagenesis procedure used was that of Mn++-poisoned PCR and the template was a linearized glyphosate oxidoreductase gene plasmid containing the synthetic glyphosate oxidoreductase gene (SEQ ID NO:8). […] Growth rates were determined by measuring A550 over a 96 hour period. […]
molecule,measurement,setting,value
"O=C(O)CNCP(=O)(O)O [Glyphosate, N-phosphonomethyl-glycine]",Specific Activity,[1],92 nmol/min/mg
"O=C(O)CNCC(=O)O [IDA, iminodiacetic acid]",Km,"[2]; read-out: spp Km (IDA), pH 7.4, 30° C., crude E. coli lysate",700 µM
same,VmKm (IDA),[2],1.0
same,app Vm (IDA),"[2]; pH 7.4, 30° C.",0.7 U/mg
same,VmKm (IDA),[3],1.2
same,app Vm (IDA),[3],0.6 U/mg
same,Km,[3]; read-out: spp Km (IDA),500 µM
"NCP(=O)(O)O [AMPA, aminomethylphosphonate]",phytotoxicity,most plant species [4],much less phytotoxic than glyphosate
same,phytotoxicity,most plant species [5],much less phytotoxic than glyphosate
"O=C(O)CNCC(=O)O [Iminodiacetic acid, iminodiacetic acid]",Specific Activity,[1],179 nmol/min/mg
same,rate of the reaction,[6],significantly faster than with glyphosate
B1,fold higher specific activity for glyphosate oxidoreductase,[7],3-4 fold
